The subject of the test is patients with amyotrophic lateral sclerosis. Put plainly: Placebo-controlled clinical test in amyotrophic lateral sclerosis patients, measured in terms of ALSFRS-R. The test is classed as in vivo, human. The protocol:
199 patients with amyotrophic lateral sclerosis who complied with the following selection standards were divided into an actual drug administration group consisting of 100 patients and a placebo administration group of 99 patients:
With regard to the actual drug administration group, two ampules of “Radicut (registered trademark), Injection 30 mg” (containing 30 mg of 3-methyl-1-phenyl-2-pyrazolin-5-one; manufactured and distributed by Mitsubishi Tanabe Pharma Corporation) were diluted with a suitable amount of normal saline before the use, and the thus prepared solution was intravenously administered to the patients by drops over 60 minutes once a day. On the other hand, with regard to the placebo administration group, only normal saline was administered to the patients in the same manner as for the actual drug administration group.
The administration period was divided into first to sixth courses. The first course consisted of a continuous 14-day administration period and the subsequent drug holiday period for 14 days in which drug administration was not carried out. In the second to sixth courses, 1 set consisting of an administration period for a total of 10 out of 14 days and the subsequent 14-day drug holiday period was repeated 5 times.
Before initiation of the drug administration in the first course, and upon termination of the drug holiday periods in the first, second, third, fourth, fifth and sixth courses, the 199 patients were measured in terms of ALSFRS-R. Among the 199 patients, some patients were dropped out from the test during a period after initiation of the administration in the fourth course and before termination of the drug holiday period in the sixth course. In the case of these drop-out patients, the ALSFRS-R score measured immediately before dropping out from the test was considered to be the score upon termination of the drug holiday period in the sixth course, and it was used in the analysis.
A difference between the ALSFRS-R scores between before initiation of the administration in the first course and upon termination of the drug holiday period in the sixth course is shown below.
Subsequently, the 199 patients were divided into the following (1) to (7):
(1) patients who were determined to be “Definite ALS” or “Probable ALS” according to the revised El Escorial (Airlie House) diagnostic criteria; (2) patient who were determined to be “Definite ALS” according to the revised El Escorial (Airlie House) diagnostic criteria; (3) patients who scored two or more points from all items constituting the ALSFRS-R; (4) patients whose % FVC was 80% or more; (5) patients who scored two or more points from all items constituting the ALSFRS-R and whose % FVC was 80% or more; (6) patients who were determined to be “Definite ALS” or “Probable ALS” according to the revised El Escorial (Airlie House) diagnostic criteria, scored two or more points from all items constituting the ALSFRS-R, and whose % FVC was 80% or more; and (7) patients who were determined to be “Definite ALS” according to the revised El Escorial (Airlie House) diagnostic criteria, scored two or more points from all items constituting the ALSFRS-R, and whose % FVC was 80% or more. With regard to the thus specified patients (1) to (7), differences in the ALSFRS-R scores between before the administration in the first course and upon termination of the drug holiday period in the sixth course are shown below.

As to `CC1=NN(c2ccccc2)C(=O)C1` [Actual drug, 3-methyl-1-phenyl-2-pyrazolin-5-one], the “Between-group difference in ALSFRS-R score change (actual drug vs placebo)” value runs as follows: ((1) Definite ALS or Probable ALS) 1.2 points; ((2) Definite ALS) 2.0 points; ((3) two or more points from all items constituting ALSFRS-R) 1.6 points; ((4) 80% or more % FVC) 1.3 points; ((5) two or more points from all ALSFRS-R items and 80% or more % FVC) 2.5 points; ((6) Definite ALS or Probable ALS, two or more points from all ALSFRS-R items, and 80% or more % FVC) 3.7 points. In addition, the “Between-group difference in ALSFRS-R score change (actual drug vs placebo)” value reads like this: ((7) Definite ALS, two or more points from all ALSFRS-R items, and 80% or more % FVC) 6.4 points; (all patients (not specified)) 0.7 points. Also, the “Before-and-after difference in ALSFRS-R score” value reads like this: ((1) Definite ALS or Probable ALS, before first course vs end of sixth course) −5.7 points; ((2) Definite ALS, before first course vs end of sixth course) −6.7 points; ((3) two or more points from all items constituting ALSFRS-R, before first course vs end of sixth course) −4.7 points; ((4) 80% or more % FVC, before first course vs end of sixth course) −3.9 points; ((5) two or more points from all ALSFRS-R items and 80% or more % FVC, before first course vs end of sixth course) −3.4 points; ((6) Definite ALS or Probable ALS, two or more points from all ALSFRS-R items, and 80% or more % FVC, before first course vs end of sixth course) −3.8 points. The “Before-and-after difference in ALSFRS-R score” value reads like this: ((7) Definite ALS, two or more points from all ALSFRS-R items, and 80% or more % FVC, before first course vs end of sixth course) −4.6 points; (all patients (not specified), before first-course administration vs end of sixth-course drug holiday, 60 mg i.v. drops over 60 min once a day) −5.3 points. In addition, the “Comparison with the placebo administration group (ALSFRS-R difference)” value (patient groups (5) to (7)) was “significant difference”. Further, where the note is “specific patients (1) to (7), extrapolated from 7% risk per 1 point ALSFRS-R (Neurology 2005; 64: 38-43)”, the “Reduction of the risk of death or tracheostomy” value is reported as not below 3.5%.
